Laboratory results: US20030162732A1, “Combination of aminosugars and cysteine or cysteine derivatives” (Astion Development A/S, priority 2001, published 2003)

Experiments:
[1] = test system: carrageenin-induced paw oedema; assay: carrageenin-induced paw oedema test in the rat; type: in vivo; details: day 0
From the text: The objective of this study is to assess the effect of complexes or compositions of the invention in the carrageenin-induced paw oedema test in the rat, a commonly employed method for screening and evaluation of antiinflammatory drugs. Carrageenin, the phlogistic agent of choice for testing antiinflammatory drugs, is a mucopolysaccharide derived from Irish sea moss, Chondrus. Ibuprofen is used as a positive control.
The test article is the complex of the invention prepared according to example 105 (Compound 105 in the following). Compound 105 and Ibuprofen are obtained from Astion A/S, Denmark.
The test article is dissolved in milli-Q water. 0.9% NaCl solution is used as vehicle.
The study is performed in male SPF Sprague Dawley rats of the stock Mol:SPRD from M & B A/S, Tornbjergvej 40, DK-4623 Lille Skensved, Denmark. At start of the acclimatisation period the rats are in the weight range of 80-100 g.
All doses of Compound 105 are administered intraperitoneally in volumes of 20 ml per kg body weight, once daily on day −2 and −1 to groups 2,3 and 4 only and on day 0 to groups 2-6, 0-5 minutes before injection of carrageenin into the foot on day 0. Ibuprofen and vehicle are administered orally by gavage in volumes of 20 ml/kg body weight on day 0, 0-5 minutes before injection of the carrageenin into the foot.
Carrageenin (from Sigma) is prepared as a 1% suspension in sterile 0.9% NaCl-solution. A volume of 0.1 ml is injected through a 25-gauge needle into the plantar tissue of the right hind paw of the rats within 5 minutes after treatment with the test articles.
Immediately before the dosing and carrageenin injection and three and five hours later the foot volume is measured using a plethysmometer LE 7500 from Letica Scientific Instruments, Spain.

[2] = test system: tendonitis of the arm; osteoarthritis of the hips and knees; knee injury involving cartilage damage; assay: small preliminary clinical investigation, three persons, oral aqueous solution of compound 105; type: in vivo, human; details: person, normal doses, patient history
Experimental: In a small preliminary clinical investigation three persons administered a pharmaceutical composition according to the invention. The composition was an aqueous solution (100 mg/ml) of compound 105, which is the complex of the invention prepared according to example 105.
One patient was […] and had suffered from tendonitis of the arm for eight months. The symptoms were chronic muscle pain and some degree of immobility of the arm.
The composition of the invention was administered orally corresponding to 3000 mg compound 105 twice a day. […] After a further week of treatment the treatment was discontinued.
Another patient was […] and had suffered from osteoarthritis of the hips and knees for ten years. For some periods the patient had been treated with celecoxib, paracetamol and/or codein to control the pain. The main symptoms were pain and immobility of the joints. The composition of the invention was administered orally corresponding to 3000 mg compound 105 twice a day.
The symptoms were pain and immobility of the knee joint. The composition of the invention was administered orally corresponding to 3000 mg compound 105 twice a day. […] During the next two days the symptoms started reappearing.

CC(C)Cc1ccc(C(C)C(=O)O)cc1 (centres unmarked) [Ibuprofen]
inhibition of the paw oedema ([1]; after 5 hours, 50 mg/kg orally by gavage): 77% | inhibition of the paw oedema ([1]; after 5 hours, 150 mg/kg orally by gavage): 97% | inhibition of the paw oedema ([1]; after three hours, 50 mg/kg orally by gavage): 37% | inhibition of the paw oedema ([1]; after three hours, 150 mg/kg orally by gavage): 57% | symptomatic effect of earlier treatment [2]: limited symptomatic effect
